Source: paper PMC3480797 (Indian Journal of Pharmacology, 2012)

Experiments:
[1] = type: in vivo, rats; conditions: rat, oral nimodipine 12 mg/kg
[2] = type: in vivo, rats; conditions: rat, i.v. nimodipine 3 mg/kg, with pravastatin 0.3 and 1 mg/kg
[3] = target: P-gp (Homo sapiens, UniProt P08183); test: Rhodamine-123 retention assay in P-gp overexpressing MCF-7/ADR cells; type: cell-based; conditions: 10 to 100 μM, 90 min, 20 μM rhodamine-123, MCF-7/ADR cells
[4] = target: human CYP3A4 (Homo sapiens, UniProt P08684); test: biochemical
human CYP3A4, sequence (P08684 whole entry): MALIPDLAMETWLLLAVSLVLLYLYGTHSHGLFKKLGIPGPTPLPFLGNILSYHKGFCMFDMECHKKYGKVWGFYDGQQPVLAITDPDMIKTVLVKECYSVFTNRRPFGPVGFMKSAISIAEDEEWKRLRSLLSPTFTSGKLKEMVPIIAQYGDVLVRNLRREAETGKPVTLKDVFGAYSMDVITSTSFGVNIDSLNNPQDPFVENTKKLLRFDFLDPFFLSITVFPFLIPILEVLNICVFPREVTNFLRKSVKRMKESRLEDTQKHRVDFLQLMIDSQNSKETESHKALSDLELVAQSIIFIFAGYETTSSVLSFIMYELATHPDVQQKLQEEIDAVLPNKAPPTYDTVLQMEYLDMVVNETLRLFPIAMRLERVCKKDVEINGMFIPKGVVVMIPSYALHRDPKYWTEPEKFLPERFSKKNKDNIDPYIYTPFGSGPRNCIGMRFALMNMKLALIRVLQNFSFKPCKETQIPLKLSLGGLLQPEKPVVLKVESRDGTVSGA

P-gp, sequence (P08183 whole entry): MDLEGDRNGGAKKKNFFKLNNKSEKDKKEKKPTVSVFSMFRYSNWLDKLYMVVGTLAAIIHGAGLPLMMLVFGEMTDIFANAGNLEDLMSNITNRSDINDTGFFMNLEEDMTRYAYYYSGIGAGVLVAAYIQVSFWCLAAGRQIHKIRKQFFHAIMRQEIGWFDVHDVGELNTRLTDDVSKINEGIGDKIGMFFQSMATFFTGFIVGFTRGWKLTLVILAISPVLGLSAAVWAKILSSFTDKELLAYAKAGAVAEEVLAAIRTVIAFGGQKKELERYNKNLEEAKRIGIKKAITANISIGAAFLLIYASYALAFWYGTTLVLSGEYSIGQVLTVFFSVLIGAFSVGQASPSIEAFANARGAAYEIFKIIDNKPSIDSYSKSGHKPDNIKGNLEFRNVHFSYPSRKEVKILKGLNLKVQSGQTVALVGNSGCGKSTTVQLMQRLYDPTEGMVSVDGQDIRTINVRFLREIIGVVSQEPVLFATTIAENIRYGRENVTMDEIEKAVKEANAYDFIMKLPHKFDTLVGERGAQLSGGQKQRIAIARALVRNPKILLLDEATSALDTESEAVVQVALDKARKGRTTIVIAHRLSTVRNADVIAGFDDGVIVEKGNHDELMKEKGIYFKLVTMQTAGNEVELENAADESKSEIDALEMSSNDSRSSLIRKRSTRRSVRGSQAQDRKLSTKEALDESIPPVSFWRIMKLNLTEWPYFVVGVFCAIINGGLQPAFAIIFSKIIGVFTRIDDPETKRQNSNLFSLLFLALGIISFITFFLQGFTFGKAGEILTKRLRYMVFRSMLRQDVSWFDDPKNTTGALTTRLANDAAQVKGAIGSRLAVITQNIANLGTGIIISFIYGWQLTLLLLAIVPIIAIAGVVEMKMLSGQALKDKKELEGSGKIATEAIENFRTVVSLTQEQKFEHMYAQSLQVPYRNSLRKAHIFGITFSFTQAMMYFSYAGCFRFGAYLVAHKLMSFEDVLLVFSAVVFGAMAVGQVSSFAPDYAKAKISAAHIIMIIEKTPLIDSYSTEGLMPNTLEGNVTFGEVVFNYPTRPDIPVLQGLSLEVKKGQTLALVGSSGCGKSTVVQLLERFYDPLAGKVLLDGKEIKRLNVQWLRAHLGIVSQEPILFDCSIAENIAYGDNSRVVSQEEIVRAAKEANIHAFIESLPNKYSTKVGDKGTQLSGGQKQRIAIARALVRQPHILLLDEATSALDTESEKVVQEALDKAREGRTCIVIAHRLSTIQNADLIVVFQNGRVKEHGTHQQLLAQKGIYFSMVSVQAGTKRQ

| Structure (SMILES) | increase of AUC0-∞ compared with the control group ([1]; with 1 mg/kg pravastatin, P < 0.05) [%] | increase of AB compared with the oral control group ([1]; with pravastatin (1 mg/kg)) [%] | effect of concurrent pravastatin on the pharmacokinetics of i.v. nimodipine [2] | effect on P-gp activity (cellular uptake of rhodamine-123) [3] | IC50 [4] [µM] |
| --- | --- | --- | --- | --- | --- |
| COCCOC(=O)C1=C(C)NC(C)=C(C(=O)OC(C)C)C1c1cccc([N+](=O)[O-])c1 (centres unmarked) [nimodipine, Nimodipine] | 30.9 | 31.1 | not affected | – | – |
| CC[C@H](C)C(=O)O[C@H]1C[C@H](O)C=C2C=C[C@H](C)[C@H](CC[C@@H](O)C[C@@H](O)CC(=O)O)[C@H]21 [pravastatin, Pravastatin] | – | – | – | did not significantly inhibit P-gp activity | 14 |
